In patent US11453674B2, “Heterocyclic compound, preparation method and use thereof in medicine” (SUZHOU SINOVENT PHARMACEUTICALS CO., LTD., priority 2019, dated 2022):
One block for each compound: values may come before it.

Target: T1, OAT1 (Homo sapiens, UniProt Q4U2R8)
T1 construct: host or cells: HEK293/OAT1 (hygromycin B selection)
T1 sequence (Q4U2R8 1-563): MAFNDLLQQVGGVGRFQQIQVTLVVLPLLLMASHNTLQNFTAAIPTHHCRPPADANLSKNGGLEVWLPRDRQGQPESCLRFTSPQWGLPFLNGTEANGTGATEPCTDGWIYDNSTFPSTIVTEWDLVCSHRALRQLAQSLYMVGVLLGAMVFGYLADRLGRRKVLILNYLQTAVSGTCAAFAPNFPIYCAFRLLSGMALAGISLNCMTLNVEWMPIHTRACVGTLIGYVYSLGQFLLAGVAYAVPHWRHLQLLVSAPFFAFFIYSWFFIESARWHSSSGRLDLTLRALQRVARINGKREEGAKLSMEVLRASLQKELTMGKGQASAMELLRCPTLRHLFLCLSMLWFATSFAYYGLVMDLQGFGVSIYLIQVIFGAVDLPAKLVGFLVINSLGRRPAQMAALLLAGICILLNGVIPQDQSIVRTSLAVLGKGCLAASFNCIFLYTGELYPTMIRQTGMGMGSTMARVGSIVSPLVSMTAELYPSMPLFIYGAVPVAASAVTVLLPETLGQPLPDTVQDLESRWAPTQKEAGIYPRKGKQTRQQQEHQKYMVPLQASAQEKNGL
Experiment: Inhibition of 6-carboxyfluorescein uptake in HEK293/OAT1 cells
Format: cell-based
Conditions: ratio of OAT1 IC50 to hURAT1 IC50 (selectivity)
Procedure: 1. Reagents and Consumables
2. Culture Media and Solutions
Thaw medium: 90% DMEM+10% FBS+1× Pen/Strep, preserved at 4° C. for later use.
Culture medium: 90% DMEM+10% FBS+1× Pen/Strep+100 μg/mL Hygromycin B, preserved at 4° C. for later use.
5× Matrigel: 1 vial of Matrigel was thawed overnight at 4° C., then diluted to 500 mL with cold DMEM. The resulting solution was preserved at 4° C. for later use after subpackaging.
Uptake assay buffer: 487.5 mL HBSS buffer was mixed with 12.5 mL 1M HEPES, with the final HEPES concentration being 25 mM. This was prepared right before the experiment.
30 mM probenecid: 2 mg of the powder was dissolved in 233.62 μL of 100% DMSO. The resulting solution was preserved at −20° C. for later use after subpackaging.
The resulting solution was preserved at −20° C. for later use after subpackaging.
The resulting solution was preserved away from light at 4° C. for later use after subpackaging.
Envision multimode plate reader (with parameters as follows)
Emission wavelength: 590 nm
4. Experimental Procedures
The cells were quickly taken out from a liquid nitrogen tank and shaken in a water bath at 37° C. until completely thawed. The cell suspension was quickly added to a pre-heated culture medium and centrifuged at 1000 rpm for 5 min. The supernatant was discarded. A fresh pre-heated culture medium was added for resuspension. The cell suspension was transferred into a 100 mm dish and incubated at 37° C. at 5% CO2.
Typically, the cells were passaged every 2-3 days in a ratio of 1:3 to 1:5.
5× Matrigel was added to a 384-well cell plate at 5 μL/well for incubation in an incubator at 37° C. for 30 min, followed by digestion.
Cells were collected after digestion, counted, resuspended at 1×10^6 cells/mL using a culture medium, and added to a coated plate at 60 μL/well by using a Multidrop Combi to give a cell density of 6×10^4 cells/well, followed by incubating overnight at 37° C. at 5% CO2.
3) Preparation of Uptake Assay Buffer
On the day of experiment, fresh buffer was prepared as needed.
4) Preparation of Compounds (Using ECHO)
Working solutions of 11 concentrations were prepared for plotting a curve with stock solutions of 3 concentrations using PlateMap. The 3 concentrations were 30 mM, 0.3 mM, 0.003 mM, all formulated in DMSO.
5) Preparation of a Mixed Solution of 6-Carboxyfluorescein (6 μM) and Compounds
According to amount used, 6-carboxyfluorescein (1 mM) was diluted with uptake assay buffer to give a diluted 6-carboxyfluorescein solution (6 μM). […] The mixture was preserved away from light for later use. The concentration of DMSO was 2% at this time.
The cells were incubated overnight before the culture medium was carefully removed. Then 80 μL of uptake assay buffer was added to each well at room temperature for washing the cells 3 times. After washing, 20 μL of uptake assay buffer was added to each well.
The mixed solution of 6-CF (6 μM) and compounds, prepared in step 5, was transferred to a cell plate at 20 μL/well with Bravo. The mixed solution was centrifuged at 400 rpm for 1 min, and incubated away from light at room temperature for 10 min. At this time, the concentration of 6-CF became 3 μM, the concentration of the compound became the final concentration, and the concentration of DMSO became 1%.
The cells were washed 3 times with pre-cooled uptake assay buffer at 80 μL/well, to remove unbound 6-CF.
The plate was read on the Envision. The data were recorded and processed to calculate IC50.
According to the fluorescence signals of HPE and ZPE on each cell plate, the inhibition rate (%) of the compound in each well on the cell plate was calculated.
The XLfit software was used to plot the curve for calculating the IC50 values of the compounds. The IC50 value of the positive compound was also one of the criteria for controlling the quality of each experiment.

Structure (SMILES): CCc1nc2ncc(F)cn2c1C(=O)c1cc(Br)c(O)c(C#N)c1 [Example 14, 3-bromo-5-(2-ethyl-6-fluoroimidazo[1,2-a]pyrimidine-3-carbonyl)-2-hydroxybenzonitrile]
IC50, OAT1/IC50, hURAT1: 3.5

Structure (SMILES): CCn1nc2ccc(F)cc2c1C(=O)c1cc(Br)c(O)c(Br)c1 [Example 9, (3,5-dibromo-4-hydroxyphenyl)(2-ethyl-5-fluoro-2H-indazol-3-yl) methanone]
IC50, OAT1/IC50, hURAT1: 7.6

Structure (SMILES): CCc1nc2ncc(F)cn2c1C(=O)c1cc(Br)c(O)c(C(F)(F)F)c1 [Example 18, (3-bromo-4-hydroxy-5-(trifluoromethyl)phenyl)(2-ethyl-6-fluoroimidazo[1,2-a]pyrimidin-3-yl)methanone]
IC50, OAT1/IC50, hURAT1: 24.5

Structure (SMILES): CCc1nc2ncc(C(F)(F)F)cn2c1C(=O)c1cc(Br)c(O)c(Br)c1 [Example 5, (3,5-dibromo-4-hydroxyphenyl)(2-ethyl-6-(trifluoromethyl)imidazo[1,2-a]pyrimidin-3-yl)methanone]
IC50, OAT1/IC50, hURAT1: 34.4

Structure (SMILES): CCc1nc2ncccn2c1C(=O)c1cc(Br)c(O)c(C#N)c1 [Example 22, 3-bromo-5-(2-ethylimidazo[1,2-a]pyrimidine-3-carbonyl)-2-hydroxybenzonitrile]
IC50, OAT1/IC50, hURAT1: 2.0

Structure (SMILES): CCc1nc2ncc(F)cn2c1C(=O)c1cc(Br)c(O)c(Br)c1 [Example 4, (3,5-dibromo-4-hydroxyphenyl)(2-ethyl-6-fluoroimidazo[1,2-a]pyrimidin-3-yl)methanone]
IC50, OAT1/IC50, hURAT1: 55.0

Structure (SMILES): CCc1nc2ncc(Br)cn2c1C(=O)c1cc(Br)c(O)c(Br)c1 [Example 3, (6-bromo-2-ethylimidazo[1,2-a]pyrimidin-3-yl)(3,5-dibromo-4-hydroxyphenyl)methanone]
IC50, OAT1/IC50, hURAT1: 13.8

Structure (SMILES): CCn1nc2ccncc2c1C(=O)c1cc(Br)c(O)c(Br)c1 [Example 16, (3,5-dibromo-4-hydroxyphenyl)(2-ethyl-2H-pyrazolo[4,3-c]pyridin-3-yl)methanone]
IC50, OAT1/IC50, hURAT1: 17.4

Further lines, results first:

IC50, OAT1/IC50, hURAT1: 33.6
Structure (SMILES): CCc1nc2ncc(Cl)cn2c1C(=O)c1cc(Br)c(O)c(Br)c1 [Example 6, (6-chloro-2-ethylimidazo[1,2-a]pyrimidin-3-yl)(3,5-dibromo-4-hydroxyphenyl)methanone]

IC50, OAT1/IC50, hURAT1: 14.2
Structure (SMILES): CCc1nc2cc(C(F)(F)F)ncn2c1C(=O)c1cc(Br)c(O)c(Br)c1 [Example 7, (3,5-dibromo-4-hydroxyphenyl)(2-ethyl-7-(trifluoromethyl)imidazo[1,2-c]pyrimidin-3-yl)methanone]

IC50, OAT1/IC50, hURAT1: 8.0
Structure (SMILES): CCc1nc2ncccn2c1C(=O)c1cc(Br)c(O)c(Br)c1 [Example 20, 2,6-dibromo-4-([2-ethylimidazo[1,2-a]pyrimidin-3-yl]carbonyl) phenol]

IC50, OAT1/IC50, hURAT1: 3.8
Structure (SMILES): CCc1nc2cc(Cl)ncn2c1C(=O)c1cc(Br)c(O)c(Br)c1 [Example 21, (7-chloro-2-ethylimidazo[1,2-f]pyrimidin-3-yl)(3,5-dibromo-4-hydroxyphenyl)methanone]

IC50, OAT1/IC50, hURAT1: 5.2
Structure (SMILES): CCc1nc2ncccn2c1C(=O)c1cc(Br)c(O)c(C(F)(F)F)c1 [Example 23, (3-bromo-4-hydroxy-5-(trifluoromethyl)phenyl)(2-ethylimidazo[1,2-a]pyrimidin-3-yl)methanone]
